{
  "source": "paper PMC9329436",
  "about": "“Optimization of the 4-anilinoquin(az)oline scaffold as epidermal growth factor receptor (EGFR) inhibitors for chordoma utilizing a toxicology profiling assay platform” (Scientific Reports, 2022)",
  "type_in_all_cases": "biochemical",
  "key": {"[1]": {"target": "T1, 320 wild-type protein kinases (Homo sapiens, UniProt Q99986)", "T1 sequence (Q99986 1-396)": "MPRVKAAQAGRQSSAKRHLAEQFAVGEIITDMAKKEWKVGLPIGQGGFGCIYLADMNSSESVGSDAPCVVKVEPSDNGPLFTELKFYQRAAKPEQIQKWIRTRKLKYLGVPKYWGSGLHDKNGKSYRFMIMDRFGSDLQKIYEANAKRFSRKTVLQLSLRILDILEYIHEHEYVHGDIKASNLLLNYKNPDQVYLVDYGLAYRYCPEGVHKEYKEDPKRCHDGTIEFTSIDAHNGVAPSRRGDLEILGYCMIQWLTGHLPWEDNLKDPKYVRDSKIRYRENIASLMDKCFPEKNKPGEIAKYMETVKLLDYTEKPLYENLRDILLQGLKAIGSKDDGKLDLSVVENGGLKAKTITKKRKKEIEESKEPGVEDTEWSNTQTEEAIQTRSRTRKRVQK", "conditions": "kinase VRK1, singlicate", "source_text": "(§1) Table S4. Profiling of two compounds at two concentrations against 320 wild-type protein kinases; singlicate measurement; Residual activities (% of control)."}, "[2]": {"target": "320 wild-type protein kinases (Homo sapiens, UniProt P53355)", "sequence (P53355 whole entry)": "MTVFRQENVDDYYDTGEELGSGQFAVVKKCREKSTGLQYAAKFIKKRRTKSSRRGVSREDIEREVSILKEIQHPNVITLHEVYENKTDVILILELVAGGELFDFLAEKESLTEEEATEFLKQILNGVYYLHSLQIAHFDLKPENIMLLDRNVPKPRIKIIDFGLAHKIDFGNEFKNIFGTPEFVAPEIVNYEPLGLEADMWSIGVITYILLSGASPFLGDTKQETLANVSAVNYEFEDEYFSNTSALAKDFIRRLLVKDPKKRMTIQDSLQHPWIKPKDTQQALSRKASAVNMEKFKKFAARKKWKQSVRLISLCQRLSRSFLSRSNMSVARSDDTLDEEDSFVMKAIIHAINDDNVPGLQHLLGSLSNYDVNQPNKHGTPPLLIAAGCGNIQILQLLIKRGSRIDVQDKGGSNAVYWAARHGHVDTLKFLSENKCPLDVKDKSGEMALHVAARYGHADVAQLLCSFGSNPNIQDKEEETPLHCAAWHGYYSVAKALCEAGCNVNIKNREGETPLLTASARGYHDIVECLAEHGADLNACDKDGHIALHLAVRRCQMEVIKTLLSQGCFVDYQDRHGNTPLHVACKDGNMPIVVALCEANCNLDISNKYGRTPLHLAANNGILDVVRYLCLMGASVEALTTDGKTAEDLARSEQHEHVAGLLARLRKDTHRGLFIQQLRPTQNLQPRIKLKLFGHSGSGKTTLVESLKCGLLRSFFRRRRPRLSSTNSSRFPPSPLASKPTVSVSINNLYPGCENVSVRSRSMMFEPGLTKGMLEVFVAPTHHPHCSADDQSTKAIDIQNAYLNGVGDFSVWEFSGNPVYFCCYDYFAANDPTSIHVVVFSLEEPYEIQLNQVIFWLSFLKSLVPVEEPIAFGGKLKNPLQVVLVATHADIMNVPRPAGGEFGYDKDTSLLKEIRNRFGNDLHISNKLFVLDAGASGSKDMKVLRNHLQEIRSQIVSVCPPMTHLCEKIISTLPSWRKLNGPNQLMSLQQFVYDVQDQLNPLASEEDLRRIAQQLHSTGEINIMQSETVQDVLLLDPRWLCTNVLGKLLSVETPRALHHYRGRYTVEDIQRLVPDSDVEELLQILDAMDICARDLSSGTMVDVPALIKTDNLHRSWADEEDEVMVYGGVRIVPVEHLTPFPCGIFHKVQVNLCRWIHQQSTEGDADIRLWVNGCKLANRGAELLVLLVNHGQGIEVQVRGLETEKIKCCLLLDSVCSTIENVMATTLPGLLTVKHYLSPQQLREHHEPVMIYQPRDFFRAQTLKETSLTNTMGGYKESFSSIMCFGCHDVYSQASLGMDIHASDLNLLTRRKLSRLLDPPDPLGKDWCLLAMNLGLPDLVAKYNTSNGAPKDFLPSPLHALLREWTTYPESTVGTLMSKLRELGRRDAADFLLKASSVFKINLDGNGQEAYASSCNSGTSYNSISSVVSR", "conditions": "singlicate", "source_text": "as §1"}, "[3]": {"target": "T2, 320 wild-type protein kinases (Homo sapiens, UniProt P42681)", "T2 sequence (P42681 1-527)": "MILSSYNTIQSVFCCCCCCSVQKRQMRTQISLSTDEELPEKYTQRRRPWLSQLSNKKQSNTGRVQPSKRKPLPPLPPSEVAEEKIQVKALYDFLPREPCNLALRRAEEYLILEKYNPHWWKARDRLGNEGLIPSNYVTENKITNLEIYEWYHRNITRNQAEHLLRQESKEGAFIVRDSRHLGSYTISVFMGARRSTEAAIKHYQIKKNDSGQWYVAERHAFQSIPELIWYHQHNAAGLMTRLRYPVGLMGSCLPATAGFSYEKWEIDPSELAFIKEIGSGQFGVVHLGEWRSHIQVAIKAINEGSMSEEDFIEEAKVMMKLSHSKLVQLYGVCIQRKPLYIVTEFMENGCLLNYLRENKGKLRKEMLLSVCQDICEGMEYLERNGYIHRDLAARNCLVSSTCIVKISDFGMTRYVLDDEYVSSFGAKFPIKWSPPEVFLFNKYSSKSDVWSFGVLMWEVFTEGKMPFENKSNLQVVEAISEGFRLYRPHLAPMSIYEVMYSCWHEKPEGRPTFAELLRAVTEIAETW", "conditions": "kinase TXK, singlicate", "source_text": "as §1"}, "[4]": {"target": "320 wild-type protein kinases (Homo sapiens, UniProt Q9P1W9)", "conditions": "singlicate", "source_text": "as §1"}, "[5]": {"target": "320 wild-type protein kinases (Homo sapiens, UniProt P45984)", "sequence (P45984 whole entry)": "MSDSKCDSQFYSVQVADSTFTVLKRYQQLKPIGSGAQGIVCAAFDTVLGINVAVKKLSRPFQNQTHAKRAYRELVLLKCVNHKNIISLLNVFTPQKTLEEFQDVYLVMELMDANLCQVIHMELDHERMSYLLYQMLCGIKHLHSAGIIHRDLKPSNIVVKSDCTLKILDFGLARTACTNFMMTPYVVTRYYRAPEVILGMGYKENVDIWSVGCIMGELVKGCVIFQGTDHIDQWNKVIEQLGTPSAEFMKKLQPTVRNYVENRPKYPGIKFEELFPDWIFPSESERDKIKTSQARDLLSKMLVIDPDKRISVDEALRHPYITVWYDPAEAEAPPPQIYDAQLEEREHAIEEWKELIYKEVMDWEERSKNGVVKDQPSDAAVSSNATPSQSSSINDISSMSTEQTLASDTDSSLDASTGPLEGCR", "conditions": "singlicate", "source_text": "as §1"}, "[6]": {"target": "320 wild-type protein kinases (Homo sapiens, UniProt Q9Y243)", "sequence (Q9Y243 whole entry)": "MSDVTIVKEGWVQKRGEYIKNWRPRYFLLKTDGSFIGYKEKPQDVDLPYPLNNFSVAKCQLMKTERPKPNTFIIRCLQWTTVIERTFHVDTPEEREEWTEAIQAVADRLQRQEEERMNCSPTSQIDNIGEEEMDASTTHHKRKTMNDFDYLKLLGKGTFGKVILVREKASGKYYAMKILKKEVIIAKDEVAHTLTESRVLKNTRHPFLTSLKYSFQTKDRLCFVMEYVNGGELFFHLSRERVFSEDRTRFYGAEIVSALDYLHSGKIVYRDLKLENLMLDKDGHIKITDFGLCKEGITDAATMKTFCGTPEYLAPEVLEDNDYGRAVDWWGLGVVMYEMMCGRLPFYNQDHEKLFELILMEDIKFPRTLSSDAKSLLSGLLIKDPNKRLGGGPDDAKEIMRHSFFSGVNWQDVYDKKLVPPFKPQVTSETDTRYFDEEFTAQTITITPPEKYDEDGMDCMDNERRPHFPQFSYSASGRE", "conditions": "singlicate", "source_text": "as §1"}, "[7]": {"target": "320 wild-type protein kinases (Homo sapiens, UniProt O96017)", "conditions": "singlicate", "source_text": "as §1"}, "[8]": {"target": "320 wild-type protein kinases (Homo sapiens, UniProt P07333)", "sequence (P07333 20-972)": "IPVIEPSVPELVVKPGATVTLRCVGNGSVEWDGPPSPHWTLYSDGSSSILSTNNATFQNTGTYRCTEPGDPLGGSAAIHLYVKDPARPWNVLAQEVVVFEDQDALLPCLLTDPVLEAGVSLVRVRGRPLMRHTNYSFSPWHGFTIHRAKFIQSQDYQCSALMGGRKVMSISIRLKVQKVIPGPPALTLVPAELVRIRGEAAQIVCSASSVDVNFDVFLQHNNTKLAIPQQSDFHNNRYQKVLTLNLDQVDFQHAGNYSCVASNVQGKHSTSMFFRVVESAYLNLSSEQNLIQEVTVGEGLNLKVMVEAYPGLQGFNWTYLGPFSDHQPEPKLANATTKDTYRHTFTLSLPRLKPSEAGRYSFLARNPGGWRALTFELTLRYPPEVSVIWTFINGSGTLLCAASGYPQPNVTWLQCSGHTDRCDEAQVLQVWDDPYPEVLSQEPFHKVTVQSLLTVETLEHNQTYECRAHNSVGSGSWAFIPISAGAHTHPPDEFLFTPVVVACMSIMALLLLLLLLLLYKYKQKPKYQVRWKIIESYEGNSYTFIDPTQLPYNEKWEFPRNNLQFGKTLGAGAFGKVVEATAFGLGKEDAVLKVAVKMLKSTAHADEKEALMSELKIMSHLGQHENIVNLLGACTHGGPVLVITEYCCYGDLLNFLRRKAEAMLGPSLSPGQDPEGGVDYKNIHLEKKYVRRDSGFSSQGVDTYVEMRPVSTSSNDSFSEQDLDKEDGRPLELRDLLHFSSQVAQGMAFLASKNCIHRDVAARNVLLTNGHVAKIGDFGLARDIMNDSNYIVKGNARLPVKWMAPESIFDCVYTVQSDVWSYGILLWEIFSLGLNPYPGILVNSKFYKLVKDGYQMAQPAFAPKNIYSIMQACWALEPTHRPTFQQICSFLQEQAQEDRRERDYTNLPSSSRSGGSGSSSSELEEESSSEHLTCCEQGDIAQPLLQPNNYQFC", "conditions": "CSF1-R, singlicate", "source_text": "as §1"}, "[9]": {"target": "320 wild-type protein kinases (Homo sapiens, UniProt P41279)", "sequence (P41279 whole entry)": "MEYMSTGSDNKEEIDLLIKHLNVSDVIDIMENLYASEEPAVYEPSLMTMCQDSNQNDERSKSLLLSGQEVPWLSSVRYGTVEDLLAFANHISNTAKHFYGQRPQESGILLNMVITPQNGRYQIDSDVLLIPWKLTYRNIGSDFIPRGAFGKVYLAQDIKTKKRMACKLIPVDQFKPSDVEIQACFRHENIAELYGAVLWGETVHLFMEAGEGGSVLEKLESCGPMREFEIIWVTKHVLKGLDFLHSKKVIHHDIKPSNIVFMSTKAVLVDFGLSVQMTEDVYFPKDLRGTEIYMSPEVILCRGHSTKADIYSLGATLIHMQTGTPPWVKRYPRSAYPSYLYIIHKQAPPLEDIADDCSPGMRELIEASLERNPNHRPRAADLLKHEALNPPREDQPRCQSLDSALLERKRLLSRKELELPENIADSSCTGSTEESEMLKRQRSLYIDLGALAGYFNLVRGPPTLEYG", "conditions": "COT, singlicate", "source_text": "as §1"}, "[10]": {"target": "T3, 320 wild-type protein kinases (Homo sapiens, UniProt P36897)", "T3 sequence (P36897 34-503)": "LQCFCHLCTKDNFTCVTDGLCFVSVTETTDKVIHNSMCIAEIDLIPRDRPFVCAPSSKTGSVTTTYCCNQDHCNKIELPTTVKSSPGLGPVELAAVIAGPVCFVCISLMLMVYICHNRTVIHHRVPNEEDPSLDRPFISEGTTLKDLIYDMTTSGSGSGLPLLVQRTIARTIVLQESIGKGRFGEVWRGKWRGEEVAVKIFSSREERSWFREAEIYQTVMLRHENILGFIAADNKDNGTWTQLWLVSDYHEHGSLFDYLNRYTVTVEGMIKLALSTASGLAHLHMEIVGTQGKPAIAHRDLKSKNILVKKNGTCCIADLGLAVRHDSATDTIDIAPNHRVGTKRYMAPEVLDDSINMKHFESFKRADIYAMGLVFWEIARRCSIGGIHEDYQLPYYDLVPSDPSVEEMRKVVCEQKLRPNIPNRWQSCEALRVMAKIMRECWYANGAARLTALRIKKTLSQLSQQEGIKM", "conditions": "kinase TGFB-R1, singlicate", "source_text": "as §1"}, "[11]": {"target": "320 wild-type protein kinases (Homo sapiens, UniProt Q13131)", "sequence (Q13131 whole entry)": "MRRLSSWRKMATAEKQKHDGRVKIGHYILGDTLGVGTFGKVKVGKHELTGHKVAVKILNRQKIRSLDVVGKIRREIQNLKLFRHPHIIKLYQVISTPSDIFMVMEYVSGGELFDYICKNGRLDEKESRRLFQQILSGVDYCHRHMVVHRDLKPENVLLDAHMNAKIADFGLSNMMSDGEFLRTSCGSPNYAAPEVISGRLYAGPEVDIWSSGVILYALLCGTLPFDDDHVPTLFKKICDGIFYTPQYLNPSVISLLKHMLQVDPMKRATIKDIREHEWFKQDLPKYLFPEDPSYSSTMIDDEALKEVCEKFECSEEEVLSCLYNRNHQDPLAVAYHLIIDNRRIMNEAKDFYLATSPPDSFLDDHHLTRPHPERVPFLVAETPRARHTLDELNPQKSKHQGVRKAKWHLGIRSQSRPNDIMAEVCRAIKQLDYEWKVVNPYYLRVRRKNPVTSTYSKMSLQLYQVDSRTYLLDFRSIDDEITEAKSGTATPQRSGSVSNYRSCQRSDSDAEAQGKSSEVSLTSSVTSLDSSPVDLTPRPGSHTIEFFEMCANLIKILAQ", "conditions": "singlicate", "source_text": "as §1"}, "[12]": {"target": "320 wild-type protein kinases (Homo sapiens, UniProt P14616)", "conditions": "INSR-R, singlicate", "source_text": "as §1"}, "[13]": {"target": "320 wild-type protein kinases (Homo sapiens, UniProt Q14680)", "sequence (Q14680 whole entry)": "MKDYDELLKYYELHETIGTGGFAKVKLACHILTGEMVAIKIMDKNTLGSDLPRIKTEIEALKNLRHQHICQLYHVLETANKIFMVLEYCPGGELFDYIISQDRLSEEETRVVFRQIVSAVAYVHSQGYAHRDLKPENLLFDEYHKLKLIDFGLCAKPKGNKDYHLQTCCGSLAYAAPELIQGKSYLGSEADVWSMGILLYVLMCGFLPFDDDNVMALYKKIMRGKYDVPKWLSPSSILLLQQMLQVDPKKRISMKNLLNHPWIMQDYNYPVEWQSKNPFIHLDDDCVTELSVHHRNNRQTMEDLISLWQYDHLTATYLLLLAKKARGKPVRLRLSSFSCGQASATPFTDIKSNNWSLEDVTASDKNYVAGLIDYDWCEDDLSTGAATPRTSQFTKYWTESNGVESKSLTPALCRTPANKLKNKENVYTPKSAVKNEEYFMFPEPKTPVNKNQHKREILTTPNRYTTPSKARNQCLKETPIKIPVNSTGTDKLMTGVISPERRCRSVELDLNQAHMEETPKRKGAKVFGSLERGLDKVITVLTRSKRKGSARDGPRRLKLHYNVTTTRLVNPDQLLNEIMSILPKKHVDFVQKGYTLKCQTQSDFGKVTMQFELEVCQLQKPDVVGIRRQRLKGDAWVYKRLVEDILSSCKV", "conditions": "MELK, singlicate", "source_text": "as §1"}},
  "note": "Where two headings read alike, the source gives them in different places.",
  "data": [
    {"smiles": "C#Cc1cc(Nc2ncnc3cc(I)ccc23)ccc1Cl", "note": "[Compound 41]", "values": [
      {"measurement": "Residual activity, VRK1", "setting": "[1]; assay conc. 1.0E-06 M", "result": "98 % of control"},
      {"measurement": "Residual activity, VRK1", "setting": "[1]; assay conc. 1.0E-07 M", "result": "109 % of control"},
      {"measurement": "Residual activity", "setting": "[2]; DAPK1, 1.0E-06 M", "result": "112 % of control"},
      {"measurement": "Residual activity", "setting": "[2]; DAPK1, 1.0E-07 M", "result": "125 % of control"},
      {"measurement": "Residual activity, TXK", "setting": "[3]; assay conc. 1.0E-06 M", "result": "79 % of control"},
      {"measurement": "Residual activity, TXK", "setting": "[3]; assay conc. 1.0E-07 M", "result": "90 % of control"},
      {"measurement": "Residual activity", "setting": "[4]; PIM2, 1.0E-06 M", "result": "101 % of control"},
      {"measurement": "Residual activity", "setting": "[4]; PIM2, 1.0E-07 M", "result": "112 % of control"},
      {"measurement": "Residual activity", "setting": "[5]; JNK2, 1.0E-06 M", "result": "116 % of control"},
      {"measurement": "Residual activity", "setting": "[5]; JNK2, 1.0E-07 M", "result": "110 % of control"},
      {"measurement": "Residual activity", "setting": "[6]; AKT3 aa106-479, 1.0E-06 M", "result": "97 % of control"},
      {"measurement": "Residual activity", "setting": "[6]; AKT3 aa106-479, 1.0E-07 M", "result": "94 % of control"},
      {"measurement": "Residual activity", "setting": "[7]; CHK2, 1.0E-06 M", "result": "83 % of control"},
      {"measurement": "Residual activity", "setting": "[7]; CHK2, 1.0E-07 M", "result": "105 % of control"},
      {"measurement": "Residual activity", "setting": "[8]; 1.0E-06 M", "result": "123 % of control"},
      {"measurement": "Residual activity", "setting": "[8]; 1.0E-07 M", "result": "130 % of control"},
      {"measurement": "Residual activity", "setting": "[9]; 1.0E-06 M", "result": "91 % of control"},
      {"measurement": "Residual activity", "setting": "[9]; 1.0E-07 M", "result": "91 % of control"},
      {"measurement": "Residual activity, TGFB-R1", "setting": "[10]; assay conc. 1.0E-06 M", "result": "81 % of control"},
      {"measurement": "Residual activity, TGFB-R1", "setting": "[10]; assay conc. 1.0E-07 M", "result": "86 % of control"},
      {"measurement": "Residual activity", "setting": "[11]; AMPK-alpha1 aa1-550, 1.0E-06 M", "result": "107 % of control"},
      {"measurement": "Residual activity", "setting": "[11]; AMPK-alpha1 aa1-550, 1.0E-07 M", "result": "106 % of control"},
      {"measurement": "Residual activity", "setting": "[12]; 1.0E-06 M", "result": "93 % of control"},
      {"measurement": "Residual activity", "setting": "[12]; 1.0E-07 M", "result": "96 % of control"},
      {"measurement": "Residual activity", "setting": "[13]; 1.0E-06 M", "result": "92 % of control"},
      {"measurement": "Residual activity", "setting": "[13]; 1.0E-07 M", "result": "101 % of control"}
    ]},
    {"smiles": "C#Cc1cc(Nc2ncnc3cc(OC)c(OC)cc23)ccc1Cl", "note": "[Compound 45]", "values": [
      {"measurement": "Residual activity, VRK1", "setting": "[1]; assay conc. 1.0E-06 M", "result": "93 % of control"},
      {"measurement": "Residual activity, VRK1", "setting": "[1]; assay conc. 1.0E-07 M", "result": "104 % of control"},
      {"measurement": "Residual activity", "setting": "[2]; DAPK1, 1.0E-06 M", "result": "116 % of control"},
      {"measurement": "Residual activity", "setting": "[2]; DAPK1, 1.0E-07 M", "result": "126 % of control"},
      {"measurement": "Residual activity, TXK", "setting": "[3]; assay conc. 1.0E-06 M", "result": "52 % of control"},
      {"measurement": "Residual activity, TXK", "setting": "[3]; assay conc. 1.0E-07 M", "result": "91 % of control"},
      {"measurement": "Residual activity", "setting": "[4]; PIM2, 1.0E-06 M", "result": "100 % of control"},
      {"measurement": "Residual activity", "setting": "[4]; PIM2, 1.0E-07 M", "result": "89 % of control"},
      {"measurement": "Residual activity", "setting": "[5]; JNK2, 1.0E-06 M", "result": "120 % of control"},
      {"measurement": "Residual activity", "setting": "[5]; JNK2, 1.0E-07 M", "result": "115 % of control"},
      {"measurement": "Residual activity", "setting": "[6]; AKT3 aa106-479, 1.0E-06 M", "result": "101 % of control"},
      {"measurement": "Residual activity", "setting": "[6]; AKT3 aa106-479, 1.0E-07 M", "result": "96 % of control"},
      {"measurement": "Residual activity", "setting": "[7]; CHK2, 1.0E-06 M", "result": "78 % of control"},
      {"measurement": "Residual activity", "setting": "[7]; CHK2, 1.0E-07 M", "result": "94 % of control"},
      {"measurement": "Residual activity", "setting": "[8]; 1.0E-06 M", "result": "108 % of control"},
      {"measurement": "Residual activity", "setting": "[8]; 1.0E-07 M", "result": "127 % of control"},
      {"measurement": "Residual activity", "setting": "[9]; 1.0E-06 M", "result": "123 % of control"},
      {"measurement": "Residual activity", "setting": "[9]; 1.0E-07 M", "result": "98 % of control"},
      {"measurement": "Residual activity, TGFB-R1", "setting": "[10]; assay conc. 1.0E-06 M", "result": "75 % of control"},
      {"measurement": "Residual activity, TGFB-R1", "setting": "[10]; assay conc. 1.0E-07 M", "result": "84 % of control"},
      {"measurement": "Residual activity", "setting": "[11]; AMPK-alpha1 aa1-550, 1.0E-06 M", "result": "98 % of control"},
      {"measurement": "Residual activity", "setting": "[11]; AMPK-alpha1 aa1-550, 1.0E-07 M", "result": "91 % of control"},
      {"measurement": "Residual activity", "setting": "[12]; 1.0E-06 M", "result": "99 % of control"},
      {"measurement": "Residual activity", "setting": "[12]; 1.0E-07 M", "result": "103 % of control"},
      {"measurement": "Residual activity", "setting": "[13]; 1.0E-06 M", "result": "101 % of control"},
      {"measurement": "Residual activity", "setting": "[13]; 1.0E-07 M", "result": "109 % of control"}
    ]}
  ]
}
